What all share (test): relative IC50 (inflection point of fitted viability curve, relative to fitted max inhibition); higher = less sensitive
What all share (conditions): 72 h

For one test, the system named is SNK-6 (IL-2 2.5 ng/mL). The procedure: (§1)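 Drug sensitivity and resistance testing: 5 concentrations over a 10,000-fold range, 72 h at 37 °C, viability by CellTiter-Glo normalised to DMSO and benzethonium chloride controls. IC50 is the inflection point of a logistic fit (min fixed at 0, max fitted), so it is relative to the fitted maximal inhibition. Kept only where fitted max inhibition is at least 50%.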

The subject of test [1] is normal primary NK cells, pool 3 (3 donors) (IL-2 2.5 ng/mL). The protocol:
as §1

The test system of a further test is IMC-1 (IL-2 20 ng/mL). The procedure:
as §1

A further test relates to DERL-7 (IL-2 2.5 ng/mL). The procedure: as §1
The test system of a further test is KAI3 (IL-2 2.5 ng/mL). The procedure:
as §1

The subject of the next test is KHYG-1 (IL-2 2.5 ng/mL). The procedure:
as §1

The test system of another test is NK-92 (IL-2 2.5 ng/mL). The protocol: as §1
A further test deals with NK-YS (IL-2 2.5 ng/mL). The protocol:
as §1

The test system of the next test is NKL (IL-2 2.5 ng/mL). The protocol:
as §1

The next test concerns YT (IL-2 2.5 ng/mL). The procedure: as §1
Test [2] relates to normal primary NK cells, pool 2 (3 donors) (IL-2 2.5 ng/mL). The procedure: as §1
Test [3] has as its system normal primary NK cells, pool 1 (3 donors) (IL-2 2.5 ng/mL). The procedure:
as §1

Test [4] has as its system normal primary NK cells, pool 1 (3 donors), resting (IL-2 0 ng/mL). The protocol:
as §1

The relative IC50 is the concentration at the midpoint between the plateaus of the fitted inhibition curve. As to `CCc1cc2c(cc1N1CCC(N3CCOCC3)CC1)C(C)(C)c1[nH]c3cc(C#N)ccc3c1C2=O` [Alectinib], the “relative IC50” value (in the test on SNK-6 (IL-2 2.5 ng/mL); in [1]) was above 1000 nM each time.

Take `C[C@]12CC[C@@H]3c4ccc(OC(=O)N(CCCl)CCCl)cc4CC[C@H]3[C@@H]1CC[C@@H]2O` [Estramustine]: the “relative IC50” value (in the test with IMC-1 (IL-2 20 ng/mL); in test [1]) was above 10000 nM throughout.

Regarding `CNC(=O)c1cccc(-c2ccc3c(N4CCOC[C@@H]4C)nc(N4CCOC[C@@H]4C)nc3n2)c1` [AZD2014], the “relative IC50” value in the test on DERL-7 (IL-2 2.5 ng/mL) came to 137 nM; in the test on KAI3 (IL-2 2.5 ng/mL) it was 24.8 nM; in the test on KHYG-1 (IL-2 2.5 ng/mL), 714 nM; in the test with NK-92 (IL-2 2.5 ng/mL), 317 nM; in the test with NK-YS (IL-2 2.5 ng/mL), 266 nM; in the test with NKL (IL-2 2.5 ng/mL), 36.7 nM. Also, the “relative IC50” value with SNK-6 (IL-2 2.5 ng/mL) turned out to be 117 nM; in the test with YT (IL-2 2.5 ng/mL) it was 295 nM.

Turning to `CN(C)C1CCN(C(=O)c2ccc(NC(=O)Nc3ccc(-c4nc(N5CCOCC5)nc(N5CCOCC5)n4)cc3)cc2)CC1` [Gedatolisib], the “relative IC50” value with DERL-7 (IL-2 2.5 ng/mL) came out at 27.4 nM; in the test with KAI3 (IL-2 2.5 ng/mL), 85.9 nM; with NK-YS (IL-2 2.5 ng/mL), 32.5 nM; with NKL (IL-2 2.5 ng/mL), 14.7 nM; with SNK-6 (IL-2 2.5 ng/mL), 75.6 nM; in the test with YT (IL-2 2.5 ng/mL), 147 nM.

Regarding `CC(=O)O[C@@]12CO[C@@H]1C[C@H](O)[C@@]1(C)C(=O)[C@H](O)C3=C(C)[C@@H](OC(=O)[C@H](O)[C@@H](NC(=O)OC(C)(C)C)c4ccccc4)C[C@@](O)([C@@H](OC(=O)c4ccccc4)[C@H]21)C3(C)C` [Docetaxel], the “relative IC50” value with DERL-7 (IL-2 2.5 ng/mL) came out at 3.18 nM; in the test on IMC-1 (IL-2 20 ng/mL) it was 3.14 nM; in the test with KAI3 (IL-2 2.5 ng/mL), 2.14 nM; with KHYG-1 (IL-2 2.5 ng/mL), 3.9 nM; in the test on NK-92 (IL-2 2.5 ng/mL), 10.9 nM; in the test on NK-YS (IL-2 2.5 ng/mL), 2.02 nM. The entries for the “relative IC50” value in the test with NKL (IL-2 2.5 ng/mL), in the test with SNK-6 (IL-2 2.5 ng/mL) and in the test on YT (IL-2 2.5 ng/mL) were 1.84 nM, 0.8 nM and 2.24 nM, respectively.

For the compound `Cc1cc(C)c(CNC(=O)c2cc(-c3ccc(CN4CCOCC4)cc3)cc3c2cnn3C2CCCC2)c(=O)[nH]1` [EPZ-5687], the “relative IC50” value (in the test with IMC-1 (IL-2 20 ng/mL); with NK-92 (IL-2 2.5 ng/mL); in the test with NKL (IL-2 2.5 ng/mL); in test [2]; in test [1]) was above 10000 nM each time.

For the compound `Nc1nc2[nH]cc(CCc3ccc(C(=O)N[C@@H](CCC(=O)O)C(=O)O)cc3)c2c(=O)[nH]1` [Pemetrexed], the “relative IC50” value in the test on IMC-1 (IL-2 20 ng/mL) was 146 nM; in [2], above 10000 nM; in test [1] it was above 10000 nM.

For the compound `CN(C)CCOc1ccc(/C(=C(/CCCl)c2ccccc2)c2ccccc2)cc1` [Toremifene], the “relative IC50” value in the test with DERL-7 (IL-2 2.5 ng/mL) amounted to 1090 nM; in the test on KAI3 (IL-2 2.5 ng/mL) it was 2030 nM; in the test on NK-92 (IL-2 2.5 ng/mL), 2190 nM; in test [3], 3740 nM; in test [4], 2370 nM.

In the case of `COc1cccc2cc(-c3nc([C@H]4CC[C@H](C(=O)O)CC4)n4ncnc(N)c34)[nH]c12` [OSI-027], the “relative IC50” value in the test with DERL-7 (IL-2 2.5 ng/mL) worked out at 1220 nM; in the test with KAI3 (IL-2 2.5 ng/mL), 775 nM; with KHYG-1 (IL-2 2.5 ng/mL) it was 1500 nM; in the test with NK-92 (IL-2 2.5 ng/mL) it was 579 nM; with NK-YS (IL-2 2.5 ng/mL), 1820 nM; with NKL (IL-2 2.5 ng/mL), 342 nM. For the same compound, the “relative IC50” value in the test with SNK-6 (IL-2 2.5 ng/mL) stood at 564 nM; in the test with YT (IL-2 2.5 ng/mL) it was 1160 nM.

Consider `Cc1cc(C)c(/C=C2\C(=O)Nc3ccccc32)[nH]1` [Semaxanib], for which the “relative IC50” value (in the test with DERL-7 (IL-2 2.5 ng/mL); in the test on NKL (IL-2 2.5 ng/mL); in test [3]; in [4]; in [1]) was above 10000 nM each time.

Regarding `CCCS(=O)(=O)Nc1ccc(F)c(C(=O)c2c[nH]c3ncc(-c4ccc(Cl)cc4)cc23)c1F` [Vemurafenib], the “relative IC50” value with DERL-7 (IL-2 2.5 ng/mL) worked out at 1760 nM; with KAI3 (IL-2 2.5 ng/mL) it was 1910 nM; with KHYG-1 (IL-2 2.5 ng/mL), 1130 nM; in the test on NK-92 (IL-2 2.5 ng/mL), 1610 nM; with NK-YS (IL-2 2.5 ng/mL), 3080 nM; with NKL (IL-2 2.5 ng/mL), 1900 nM. Moreover, the results for the “relative IC50” value in the test with SNK-6 (IL-2 2.5 ng/mL) and with YT (IL-2 2.5 ng/mL) were 3170 nM and 1910 nM, respectively.

Regarding `Cc1cnc(Nc2ccc(OCCN3CCCC3)cc2)nc1Nc1cccc(S(=O)(=O)NC(C)(C)C)c1`, the “relative IC50” value worked out at 233 nM in the test with DERL-7 (IL-2 2.5 ng/mL); 203 nM with KAI3 (IL-2 2.5 ng/mL); 262 nM in the test with KHYG-1 (IL-2 2.5 ng/mL); 1330 nM in the test on NK-92 (IL-2 2.5 ng/mL); 534 nM with NK-YS (IL-2 2.5 ng/mL); 112 nM in the test with NKL (IL-2 2.5 ng/mL). Besides, the “relative IC50” value with SNK-6 (IL-2 2.5 ng/mL) is 876 nM; in the test on YT (IL-2 2.5 ng/mL), 977 nM; in test [3], 262 nM; in [4], 715 nM.

For `Nc1nc2[nH]cnc2c(=S)[nH]1` [Thioguanine], the “relative IC50” value in the test with DERL-7 (IL-2 2.5 ng/mL) was 2350 nM; in the test on IMC-1 (IL-2 20 ng/mL), 1300 nM; in the test on KAI3 (IL-2 2.5 ng/mL) it was 1780 nM; in the test with KHYG-1 (IL-2 2.5 ng/mL) it was 322 nM; in the test on NK-92 (IL-2 2.5 ng/mL), 742 nM; in the test with NK-YS (IL-2 2.5 ng/mL), 296 nM. Further, the “relative IC50” value amounted to 1440 nM in the test on NKL (IL-2 2.5 ng/mL); 938 nM in the test on SNK-6 (IL-2 2.5 ng/mL); 383 nM in the test on YT (IL-2 2.5 ng/mL); 2100 nM in [3]; 1900 nM in [2].

The values are drawn from the supplement of paper PMC5908809.
